Test results from patent US20260347399A1, “BRAIN PENETRATING PEPTIDES AND METHODS OF USE” (priority 2022, published 2026).
Ends that are not written are not given here.

What was measured:
mouse brain = assay: In vivo phage display with CX4CYX library
Procedure: In vivo phage display with CX4CYX library was performed in three selection rounds. Phage library was injected intravenously to Balb/c mice and allowed to circulate for one hour. After circulation, the animals were anesthetized and perfused intracardially with acid and detergent buffers. Brain and control organs were collected and homogenized in 1% NP40-LB. Bound phages were rescued by amplification in E. coli and their genomic DNA was sequenced by Ion Torrent next generation DNA sequencing system.
A novel phage library CX4CYX was constructed based on the alanine-leucine screen to find new brain homing peptides). This knowledge directed us to construct a novel phage library CX4CYX (X—any amino acid), where Cys1, Cys6 and Tyr7 remained in their intact positions, and the four amino acid variable-domain laid between the cysteines, and one amino acid variability after Tyr7. Three rounds of phage bio-panning was performed to allow enrichment of peptides in the brain. Again acid and detergent buffers were used for perfusion to remove non-specifically bound phages from the brain after systemic administration of phage library (round 1) and recovered brain phage pools (round 2 and 3). HTS reads from round 1 to round 3 indicated decent enrichment of in-frame peptides in the brain (Table 6).

mouse CNS = assay: CVGTNCY peptide-phage biodistribution; assay type: in vivo
Procedure: CVGTNCY (SEQ ID NO:2) peptide-phage or control phage were injected iv into mice, after one hour circulation animals were perfused with 20 ml PBS, organs were collected, weighed, and dropped to 1% NP40-LB solution. Organs were homogenized and titer of each tissue was determined. FAM-labeled peptides (2 mM of peptide in PBS) were injected intravenously and 3 hours later the animals were perfused with 20 mL of PBS. The organs were excised, snap-frozen in the vapor of liquid nitrogen, and stored at −80 °C. For confocal microscopy, the tissues were sectioned at 15 μm and stained with antibodies and DAPI.
To describe the utility of CVGTNCY (SEQ ID NO:2) peptide as a systemic CNS homing peptide, the biodistribution of CVGTNCY (SEQ ID NO:2) peptide-phage as well as peptide-functionalized AgNPs were analyzed in rodents. […] No significant difference between CVGTNCY (SEQ ID NO:2) and G7 titers was determined in the rest of the analyzed organs/tissues).

Reelin = assay: Peptide-phage binding on ELISA plate; design: species or system human
Procedure: Reelin protein (#8546-MR-050; R&D Systems), NRP-1 b1b2 (wt and mutant) or 5% BSA was immobilized on Costar 96-Well ELISA plate (#3590, Corning Life Sciences, Tewksbury, MA, USA). The multiwell plates were coated with 20 μg/ml recombinant protein in 100 μl of PBS overnight at +4 °C, followed by blocking with 1% bovine serum albumin (BSA) in PBS overnight at +4 °C. The phage (5×10^8 pfu in 100 μl of PBS-BSA) was incubated overnight at +4 °C, followed by 6 washes with PBS containing 1% BSA and 0.1% Tween-20 (washing buffer) to remove background phages. BLT5615 OD600=0.5 containing 2 mM IPTG was used to recover the phages and determine the titer of samples.
Next, an affinity chromatography was performed to identify a receptor of the CVGTNCY (SEQ ID NO:2), and selected a receptor candidate, which is a secreted extracellular matrix protein Reelin. CVGTNCY (SEQ ID NO:2) binding to Reelin protein was tested by cell free method on ELISA plate. Recombinant human Reelin protein (Ser1221-Gln2666; 163 kDa) was used to coat the ELISA plate and the CVGTNCY (SEQ ID NO:2) peptide-phage was allowed to bind to it. After several washes, the titer of the experiment was determined to rate on the binding efficiency.
Reelin was identified from affinity chromatography proteomics data. […] The binding efficiency was evaluated based on the titer (PFU/ml) of each sample. […]

brain parenchyma = assay: Peptide-phage homing in vivo vs ex vivo; design: species or system mouse
WT GBM cells = assay: Proximity labelling with peptide-HRP complex and mass spectrometry; assay type: cell-based, mouse; conditions: WT GBM and Neuro2A proximity labelling, mass spectrometry
Procedure: To assess the efficiency and specificity of proximity labelling, WT GBM cells were cultured in 24-well plates on polylysine coated glass coverslips until 80-90% confluency. Cerepep and horseradish peroxidase complex (CP-HRP) was prepared by conjugating biotinylated Cerepep to streptavidin-HRP. Control biotin-HRP complex was prepared by conjugating biotin to streptavidin-HRP. 4 μM CP-HRP or biot-HRP in DPBS was added to the cells and incubated at 37 °C for 1 h. The cells were washed with DPBS. 500 μM biotin-phenol (Iris Biotech #41994-02-9) in DPBS was added to the cells and incubated at 37 °C for 30 min. To start the reaction, H2O2 with the final concentration of 1 mM was added to the cells and incubated for 2 min at RT. The reaction was stopped by washing with 100 U/ml catalase in DPBS. Cells were fixed in 4% PFA and biotinylated proteins were detected with Streptavidin-Dylight 550 conjugate (1:500 in DPBS). Nuclei were stained with DAPI and the biotinylation of cells was analyzed with confocal microscopy.
To biotinylate the receptor of Cerepep peptide to be detected with mass spectrometry, the proximity labelling was performed on WT GBM and Neuro2A cells in suspension following the same protocol as with attached cells. […]
Biotin was detected with Streptavidin DyLight550. The WT GBM cells were analyzed with confocal microscopy. […]

CVGTNCY
R1 reads (mouse brain; round 1): 12 reads | R3 reads (mouse brain; round 3): 37038 reads | reads in the brain compared to CAGALCY (mouse brain; round 3, vs CAGALCY): about 40 times | R3 > R1 (ratio of sequencing reads between round 3 and round 1) (mouse brain; round 3 / round 1): 3087 | homing preference (mouse CNS; mouse, in vivo): homes preferentially to the eyes/brain/CNS | homing to other organs (mouse CNS; peptide-phage i.v., 1 h, mice): did not show a trend of homing | level in CNS and eyes compared to control G7 phage (mouse CNS; peptide-phage i.v., 1 h, mice): High level | regional homing in CNS (mouse CNS; peptide-phage i.v., 1 h, mice): tendency to home more to the hippocampus, frontal cortex and cerebellum | binding to Reelin (Reelin): specific binding | brain homing in vivo after iv injection (brain parenchyma): homes to the brain parenchyma

SRRVISRAKLAAAL [Cerepep, SRRVISRAKLAAAL]
most probable receptor candidate (WT GBM cells): LRP1 was considered the most probable candidate
